Legend:
SNU-16 = assay: Cell SNU-16 assay; assay type: cell-based; settings: Homo sapiens, SNU-16, SNU-16 cells
FGFR2 = FGFR2 (Homo sapiens (Human), UniProt P21802); assay: Biochemical FGFR2 Caliper assay
Chain of FGFR2 (P21802 22-821): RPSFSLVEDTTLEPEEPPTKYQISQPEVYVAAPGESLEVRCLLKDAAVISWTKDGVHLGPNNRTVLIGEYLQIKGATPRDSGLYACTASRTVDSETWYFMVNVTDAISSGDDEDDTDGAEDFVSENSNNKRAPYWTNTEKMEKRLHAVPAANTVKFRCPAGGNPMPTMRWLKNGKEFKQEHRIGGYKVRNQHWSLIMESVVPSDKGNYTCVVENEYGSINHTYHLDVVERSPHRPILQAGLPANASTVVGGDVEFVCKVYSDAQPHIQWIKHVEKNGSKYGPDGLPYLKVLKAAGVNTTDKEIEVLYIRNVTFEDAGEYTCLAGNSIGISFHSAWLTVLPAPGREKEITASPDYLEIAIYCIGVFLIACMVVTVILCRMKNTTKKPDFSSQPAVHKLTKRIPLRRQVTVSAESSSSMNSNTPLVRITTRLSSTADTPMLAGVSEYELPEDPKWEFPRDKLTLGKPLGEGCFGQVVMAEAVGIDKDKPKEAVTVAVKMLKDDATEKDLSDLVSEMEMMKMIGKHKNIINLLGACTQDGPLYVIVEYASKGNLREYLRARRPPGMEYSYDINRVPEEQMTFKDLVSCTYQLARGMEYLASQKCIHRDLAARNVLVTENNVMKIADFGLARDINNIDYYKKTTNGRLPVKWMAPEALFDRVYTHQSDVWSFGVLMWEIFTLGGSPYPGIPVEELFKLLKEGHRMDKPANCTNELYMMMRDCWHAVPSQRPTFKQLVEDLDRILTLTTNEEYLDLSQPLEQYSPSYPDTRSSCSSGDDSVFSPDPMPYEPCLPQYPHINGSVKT

SMILES	IC50 (SNU-16)	IC50 (FGFR2)
C=C(C)c1nc(-c2ccc(-c3c(-c4ccccc4)c4c(N)ncnc4n3C)cc2)no1 [Example 1172]	≤ 100 nM	< 100 nM
C#Cc1ccc(-c2c(-c3ccc(Oc4nccc(C)n4)cc3)c3c(N)ncnc3n2C)cc1F [Example 1175]	≤ 100 nM	100 to 250 nM
C#Cc1c(F)cc(-c2c(-c3ccc(Oc4nccc(C)n4)cc3)c3c(N)ncnc3n2C)cc1F [Example 1177]	≤ 100 nM	< 100 nM
C#Cc1ncc(-c2c(C3=CC[C@@H](C(=O)N4CCCC4)CC3)c3c(N)ncnc3n2C)c(C)n1 [Example 1180]	≤ 100 nM	< 100 nM
C#Cc1cnc(-c2c(-c3ccc(Oc4nccc(C)n4)cc3)c3c(N)ncnc3n2C)cn1 [Example 1181]	≤ 100 nM	< 100 nM
C#Cc1ncc(-c2c(-c3ccc(C(=O)N4CCC[C@@H]4C#C)cc3)c3c(N)ncnc3n2C)c(C)n1 [Example 1182]	≤ 100 nM	< 100 nM
C#Cc1ccc(-c2c(-c3ccc(Oc4nccc(C)n4)c(F)c3)c3cncnc3n2C)c(C)n1 [Example 1183]	≤ 100 nM	< 100 nM
C#Cc1ncc(-c2c(-c3ccc(C(=O)N4CCC[C@H]4C#C)cc3)c3c(N)ncnc3n2C)c(C)n1 [Example 1184]	1000 to 100000 nM	1000 to 100000 nM
C#Cc1cc(C)c(-c2c(-c3ccc(C(=O)N4CCC[C@H]4C#C)cc3)c3c(N)ncnc3n2C)cn1 [Example 1185]	≤ 100 nM	< 100 nM
C=C1CCN(c2ccc(-c3c(-c4ccc(Oc5nccc(C)n5)c(F)c4)c4c(C)ncnc4n3C)c(C)c2)C1=O [Example 1186]	≤ 100 nM	< 100 nM
C#Cc1cc(C)c(-c2c(-c3ccc(C(=O)N4CCC[C@@H]4C#C)cc3)c3c(N)ncnc3n2C)cn1 [Example 1187]	≤ 100 nM	< 100 nM
C#Cc1ncc(-c2c(-c3ccc(Oc4nccc(C)n4)cc3)c3c(N)ncnc3n2C)cc1C#N [Example 1188]	≤ 100 nM	< 100 nM
C=C(C)C(=O)Nc1ccc(-c2c(C3=CCN(Cc4ccccc4)CC3)c3c(N)ncnc3n2C)cc1 [Example 1189]	≤ 100 nM	< 100 nM
C#Cc1cc(-c2c(-c3ccccc3)c3c(N)ncnc3n2C)ccn1 [Example 1193]	250 to 1000 nM	250 to 1000 nM
C=Cc1ccc(-c2c(-c3ccccc3)c3c(N)ncnc3n2C)cn1 [Example 1194]	1000 to 100000 nM	1000 to 100000 nM
C#Cc1ccc(-c2c(-c3ccc(Oc4nccc(C)n4)cc3F)c3c(N)ncnc3n2C)c(C)n1 [Example 1197]	≤ 100 nM	< 100 nM

SMILES	IC50 (SNU-16)	IC50 (FGFR2)
C#Cc1cc(F)c(-c2c(-c3ccc(Oc4nccc(C)n4)c(F)c3)c3c(N)ncnc3n2C)cn1 [Example 1198]	≤ 100 nM	< 100 nM
C#Cc1ccc(-c2c(-c3ccc(Oc4nccc(C)n4)c(F)c3)c3c(N)ncnc3n2C)c(F)n1 [Example 1200]	1000 to 100000 nM	1000 to 100000 nM
C#Cc1nc2cc(-c3c(-c4ccc(Oc5nccc(C)n5)c(F)c4)c4c(N)ncnc4n3C)ccc2[nH]1 [Example 1202]	250 to 1000 nM	1000 to 100000 nM
C#Cc1cc(C)c(-c2c(-c3ccc(Oc4cccc(C)n4)c(F)c3)c3c(N)ncnc3n2C)cn1 [Example 1203]	≤ 100 nM	< 100 nM
Cc1ccnc(Oc2ccc(-c3c(-c4ccc(C)nc4C)n(C)c4ncnc(N)c34)cc2F)n1 [Example 1206]	250 to 1000 nM	250 to 1000 nM
C#Cc1cc(C)c(-c2c(-c3ccc(Oc4nccc(C)n4)c(F)c3)c3c(N)ncnc3n2C(C)C)cn1 [Example 1213]	≤ 100 nM	< 100 nM
C#Cc1ccc(-c2c(-c3ccc(Oc4nccc(C)n4)c(F)c3)c3c(N)ncnc3n2C(C)C)c(C)n1 [Example 1214]	≤ 100 nM	< 100 nM
C#Cc1cc(C)c(-c2c(-c3ccc(Oc4nccc(C)n4)c(F)c3)c3c(N)ncnc3n2C)c(C)n1 [Example 1215]	≤ 100 nM	< 100 nM
C#Cc1cc(CC)c(-c2c(-c3ccc(Oc4nccc(C)n4)c(F)c3)c3c(N)ncnc3n2C)cn1 [Example 1217]	≤ 100 nM	< 100 nM
C#Cc1cc(CO)c(-c2c(-c3ccc(Oc4nccc(C)n4)c(F)c3)c3c(N)ncnc3n2C)cn1 [Example 1228]	≤ 100 nM	< 100 nM
COCC#Cc1ncc(-c2c(-c3ccc(Oc4nccc(C)n4)cc3)c3c(N)ncnc3n2C)c(C)n1 [Example 1232]	≤ 100 nM	< 100 nM
C#Cc1ncc(-c2c(-c3ccc(Oc4nccc(C)n4)c(F)c3)c3c(N)ncnc3n2C)c2ccccc12 [Example 1233]	≤ 100 nM	< 100 nM
C#Cc1cc(C)c(-c2c(-c3ccc(Oc4ncccn4)c(F)c3)c3c(N)ncnc3n2C)cn1 [Example 1234]	≤ 100 nM	< 100 nM
C#Cc1cc(-c2c(-c3ccc(Oc4nccc(C)n4)cc3)c3c(N)ncnc3n2C)n(C)n1 [Example 1236]	1000 to 100000 nM	1000 to 100000 nM
C#Cc1cc(-c2c(-c3ccc(Oc4nccc(C)n4)c(F)c3)c3c(N)ncnc3n2C)ccn1 [Example 1237]	≤ 100 nM	250 to 1000 nM
